Laboratory results reported in paper PMC8300687, “A Fine-Tuned Lipophilicity/Hydrophilicity Ratio Governs Antibacterial Potency and Selectivity of Bifurcated Halogen Bond-Forming NBTIs” (Antibiotics, 2021).
In brackets after ≈: the same amount, converted by molar mass. Like-named read-outs stand apart in the source and are kept apart here.

Tests used:
S. aureus DNA gyrase = target: T1, S. aureus DNA gyrase (Staphylococcus aureus, UniProt P20831); assay: biochemical; assay type: biochemical; settings: for IC50: fluorescence plate supercoiling assay, mean of two to four measurements
T1 construct: purchased Inspiralis (Norwich, UK)
T1 sequence (P20831 whole entry): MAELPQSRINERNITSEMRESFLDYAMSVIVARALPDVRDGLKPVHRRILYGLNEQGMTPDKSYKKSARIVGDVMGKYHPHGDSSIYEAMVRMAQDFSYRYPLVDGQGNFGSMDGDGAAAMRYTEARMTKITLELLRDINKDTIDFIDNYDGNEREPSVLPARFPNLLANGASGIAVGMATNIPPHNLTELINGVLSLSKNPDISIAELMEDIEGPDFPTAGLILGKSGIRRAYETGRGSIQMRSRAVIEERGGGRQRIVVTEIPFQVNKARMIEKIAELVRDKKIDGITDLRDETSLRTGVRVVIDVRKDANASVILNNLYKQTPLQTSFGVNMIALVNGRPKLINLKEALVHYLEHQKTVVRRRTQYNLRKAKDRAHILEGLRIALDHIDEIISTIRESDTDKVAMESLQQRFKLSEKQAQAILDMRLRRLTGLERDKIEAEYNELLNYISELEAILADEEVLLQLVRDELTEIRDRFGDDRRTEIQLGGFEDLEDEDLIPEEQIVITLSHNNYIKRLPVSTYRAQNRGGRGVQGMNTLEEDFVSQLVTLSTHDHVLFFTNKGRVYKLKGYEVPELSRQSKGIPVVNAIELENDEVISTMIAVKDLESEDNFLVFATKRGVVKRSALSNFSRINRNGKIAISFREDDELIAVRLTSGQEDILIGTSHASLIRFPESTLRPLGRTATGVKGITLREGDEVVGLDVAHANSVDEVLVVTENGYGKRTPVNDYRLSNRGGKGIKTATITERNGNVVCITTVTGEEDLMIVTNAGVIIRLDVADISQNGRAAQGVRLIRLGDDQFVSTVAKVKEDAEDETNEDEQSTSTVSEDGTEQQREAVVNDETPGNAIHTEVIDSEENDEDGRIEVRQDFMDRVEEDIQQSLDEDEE
T1 sequence (P0A0K8 whole entry partner): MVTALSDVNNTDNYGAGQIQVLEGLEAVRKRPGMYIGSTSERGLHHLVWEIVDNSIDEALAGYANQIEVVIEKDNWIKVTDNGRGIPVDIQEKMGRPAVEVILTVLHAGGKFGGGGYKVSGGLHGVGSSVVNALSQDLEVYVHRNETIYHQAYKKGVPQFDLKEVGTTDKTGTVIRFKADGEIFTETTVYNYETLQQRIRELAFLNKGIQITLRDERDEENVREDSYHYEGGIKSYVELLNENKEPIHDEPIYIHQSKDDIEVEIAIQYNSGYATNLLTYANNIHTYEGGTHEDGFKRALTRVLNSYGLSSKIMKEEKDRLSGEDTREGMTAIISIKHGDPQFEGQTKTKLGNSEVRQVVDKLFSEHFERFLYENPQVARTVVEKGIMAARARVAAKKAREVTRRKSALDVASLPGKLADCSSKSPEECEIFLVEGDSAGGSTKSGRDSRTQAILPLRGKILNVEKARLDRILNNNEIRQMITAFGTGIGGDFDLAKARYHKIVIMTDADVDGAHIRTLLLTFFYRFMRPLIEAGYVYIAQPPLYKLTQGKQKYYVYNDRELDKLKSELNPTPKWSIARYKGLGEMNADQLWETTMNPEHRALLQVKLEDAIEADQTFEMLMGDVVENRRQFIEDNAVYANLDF
Protocol: (§1) A Gyrase Supercoiling High Throughput Plate assay kit, purchased from Inspiralis (Norwich. UK) was used to determine IC50 values of compounds on S. aureus and E. coli. […] Biotinylated oligonucleotide in wash buffer was immobilized onto the wells, and the excess oligonucleotide was washed off with wash buffer and ultrapure water. […] The reactions were stopped by adding the TF buffer (50 mM NaOAc (pH 4.7), 50 mM NaCl, and 50 mM MgCl2) to allow the triplex formation (biotin-oligonucleotide-plasmid) for additional 30 min. Afterward, the unbound plasmid was washed off using TF buffer, and the solution of Promega Diamond dye in T10 buffer (10 mM Tris-HCl (pH 8.0), 1 mM EDTA) was added. […] IC50 value represents the mean of two to four independent measurements.

E. coli DNA gyrase = target: T2, E. coli DNA gyrase (Escherichia coli, UniProt P0AES4); assay: Gyrase Supercoiling High Throughput Plate assay, E. coli; assay type: biochemical
T2 construct: purchased Inspiralis (Norwich, UK)
T2 sequence (P0AES4 whole entry): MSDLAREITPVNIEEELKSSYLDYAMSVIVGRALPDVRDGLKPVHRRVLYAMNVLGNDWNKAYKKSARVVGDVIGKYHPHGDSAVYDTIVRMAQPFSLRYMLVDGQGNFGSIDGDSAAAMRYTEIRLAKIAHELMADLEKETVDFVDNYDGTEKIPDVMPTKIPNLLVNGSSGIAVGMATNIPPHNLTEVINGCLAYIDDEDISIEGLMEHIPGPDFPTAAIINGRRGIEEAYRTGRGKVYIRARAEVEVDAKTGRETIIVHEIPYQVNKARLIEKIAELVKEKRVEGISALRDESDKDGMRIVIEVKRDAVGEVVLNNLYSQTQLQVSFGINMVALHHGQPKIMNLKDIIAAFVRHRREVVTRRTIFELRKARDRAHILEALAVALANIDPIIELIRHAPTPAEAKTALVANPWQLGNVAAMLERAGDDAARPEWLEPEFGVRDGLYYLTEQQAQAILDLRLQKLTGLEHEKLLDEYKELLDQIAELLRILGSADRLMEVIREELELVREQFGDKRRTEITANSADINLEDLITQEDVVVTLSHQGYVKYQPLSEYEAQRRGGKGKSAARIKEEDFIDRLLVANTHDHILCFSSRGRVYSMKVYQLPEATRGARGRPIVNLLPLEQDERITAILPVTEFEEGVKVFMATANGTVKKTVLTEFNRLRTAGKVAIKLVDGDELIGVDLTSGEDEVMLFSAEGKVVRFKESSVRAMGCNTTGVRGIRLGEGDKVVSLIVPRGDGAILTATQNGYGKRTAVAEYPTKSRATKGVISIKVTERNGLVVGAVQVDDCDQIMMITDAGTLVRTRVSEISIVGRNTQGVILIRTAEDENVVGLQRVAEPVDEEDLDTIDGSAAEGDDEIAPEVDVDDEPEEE
Protocol: as §1

E. coli Topo IV = target: T3, E. coli Topo IV (Escherichia coli, UniProt P0AFI2); assay: Topo IV Relaxation High Throughput Plate assay, E. coli; assay type: biochemical
T3 construct: purchased Inspiralis (Norwich, UK)
T3 sequence (P0AFI2 whole entry): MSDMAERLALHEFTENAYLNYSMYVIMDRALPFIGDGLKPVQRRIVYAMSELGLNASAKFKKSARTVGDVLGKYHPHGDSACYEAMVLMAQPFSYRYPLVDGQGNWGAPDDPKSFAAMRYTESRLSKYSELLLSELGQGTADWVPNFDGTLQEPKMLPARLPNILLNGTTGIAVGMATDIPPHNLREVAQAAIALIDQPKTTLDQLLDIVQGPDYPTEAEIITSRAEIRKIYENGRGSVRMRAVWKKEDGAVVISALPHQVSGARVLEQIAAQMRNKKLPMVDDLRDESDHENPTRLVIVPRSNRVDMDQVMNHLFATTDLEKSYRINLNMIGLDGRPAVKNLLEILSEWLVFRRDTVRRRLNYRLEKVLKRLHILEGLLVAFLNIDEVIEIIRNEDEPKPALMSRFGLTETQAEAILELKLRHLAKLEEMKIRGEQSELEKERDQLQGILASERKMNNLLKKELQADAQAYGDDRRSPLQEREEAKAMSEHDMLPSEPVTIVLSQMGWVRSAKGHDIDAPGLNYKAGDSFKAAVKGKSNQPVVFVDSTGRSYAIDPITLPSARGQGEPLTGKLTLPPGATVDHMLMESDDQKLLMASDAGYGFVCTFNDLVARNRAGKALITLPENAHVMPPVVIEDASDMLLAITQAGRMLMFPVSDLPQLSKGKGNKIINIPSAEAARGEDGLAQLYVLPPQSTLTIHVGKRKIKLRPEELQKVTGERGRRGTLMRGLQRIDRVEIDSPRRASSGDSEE
T3 sequence (P20083 whole entry, further chain): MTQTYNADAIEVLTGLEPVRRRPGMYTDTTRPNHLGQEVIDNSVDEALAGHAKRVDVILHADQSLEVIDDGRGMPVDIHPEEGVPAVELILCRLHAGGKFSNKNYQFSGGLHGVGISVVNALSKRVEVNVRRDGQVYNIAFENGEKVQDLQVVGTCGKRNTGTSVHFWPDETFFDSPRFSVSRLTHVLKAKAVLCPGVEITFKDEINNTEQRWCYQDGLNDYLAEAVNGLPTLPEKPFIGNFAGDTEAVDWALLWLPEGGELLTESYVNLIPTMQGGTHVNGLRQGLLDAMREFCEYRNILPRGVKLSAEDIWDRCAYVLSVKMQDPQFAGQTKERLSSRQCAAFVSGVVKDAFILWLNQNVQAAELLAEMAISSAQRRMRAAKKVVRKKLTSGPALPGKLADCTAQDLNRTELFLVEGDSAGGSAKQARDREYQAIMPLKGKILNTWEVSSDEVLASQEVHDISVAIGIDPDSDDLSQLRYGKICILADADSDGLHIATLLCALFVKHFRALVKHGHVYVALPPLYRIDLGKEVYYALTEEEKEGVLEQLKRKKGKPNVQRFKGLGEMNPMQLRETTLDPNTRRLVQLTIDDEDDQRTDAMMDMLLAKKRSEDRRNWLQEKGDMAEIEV
Protocol: A Topo IV Relaxation High Throughput Plate assay kit, purchased from Inspiralis (Norwich. UK) was used to determine IC50 values of compounds on S. aureus and E. coli. […] Biotinylated oligonucleotide in wash buffer was immobilized onto the wells, and the excess oligonucleotide was washed off with wash buffer and ultrapure water. 1.5 U of S. aureus or E. coli […] enzyme was incubated together with 0.75 μg of supercoiled pNO1 plasmid as a substrate in the presence of 3 μL inhibitor solution in 10% DMSO and 0.008% Tween 20 at 37 °C for 30 min in a final reaction volume of 30 μL in dilution buffer (50 mM Tris-HCl (pH 7.5), 1 mM DTT, 1 mM EDTA, 40% (w/v) glycerol for S. aureus and 40 mM HEPES, KOH (pH 7.6), 100 mM potassium glutamate, 1 mM DTT, 1 mM EDTA, and 40% (v/v) glycerol for E. coli). The reactions were stopped by adding the TF buffer (50 mM NaOAc (pH 4.7), 50 mM NaCl, and 50 mM MgCl2) to allow the triplex formation (biotin-oligonucleotide-plasmid) for additional 30 min. Afterward, the unbound plasmid was washed off using TF buffer, and the solution of Promega Diamond dye in T10 buffer (10 mM Tris-HCl (pH 8.0), 1 mM EDTA) was added. […] IC50 value represents the mean of two to four independent measurements.

S. aureus (ATCC 29213) = assay: MIC broth microdilution, S. aureus ATCC 29213; assay type: cell-based
Protocol: (§2) Antimicrobial testing was carried out by the broth microdilution method in 96-well plate format following the Clinical and Laboratory Standards Institute (CLSI) guidelines and European Committee on Antimicrobial Susceptibility Testing (EUCAST) recommendations. Bacterial suspension of specific bacterial strain equivalent to 0.5 McFarland turbidity standard was diluted with cation-adjusted Mueller Hinton broth with TES (Thermo Fisher Diagnostic, Landsmeer, The Netherlands), to obtain a final inoculum of 10^5 CFU/mL. Compounds dissolved in DMSO and inoculum were mixed together and incubated for 18–20 h at 35 °C. Suspensions of Mycobacterium sp. were prepared into a tube of Middelbrook 7H9 broth supplemented with 5% OADC (Thermo Scientific, Trek Diagnostic Systems, West Sussex, UK) and incubated for at least 10 days. After incubation the minimal inhibitory concentration (MIC) values were determined by visual inspection as the lowest dilution of compounds showing no turbidity. Tetracycline was used as a positive control on every assay plate.

MRSA (QA-11.7) = assay: MIC broth microdilution, MRSA QA-11.7; assay type: cell-based, methicillin-resistant S. aureus; settings: Staphylococcus aureus, 20 h, read-out: MIC MRSA (QA-11.7)
Protocol: as §2

E. coli (ATCC 25922) = assay: MIC broth microdilution, E. coli ATCC 25922; assay type: cell-based
Protocol: as §2

E. coli (QA-11.8) = assay: MIC broth microdilution, E. coli QA-11.8; assay type: cell-based
Protocol: as §2

E. coli (QA-11.7) = assay: MIC broth microdilution, E. coli QA-11.7; assay type: cell-based; settings: Escherichia coli, 20 h, read-out: MIC E. coli (QA-11.7)
Protocol: as §2

E. coli (QA-11.3) = assay: MIC broth microdilution, E. coli QA-11.3; assay type: cell-based
Protocol: as §2

[1] = test system: S. alachua RDK 030c (QA-1482/04); assay: MIC broth microdilution, S. alachua; assay type: cell-based
Protocol: as §2

[2] = test system: C. jejuni RDK 135 (ATCC 33560); assay: MIC broth microdilution, C. jejuni; assay type: cell-based
Protocol: as §2

M. smegmatis = assay: MIC, M. smegmatis; assay type: cell-based, Mycobacterium smegmatis
Protocol: as §2

[3] = Staphylococcus aureus, ATCC29213, read-out: MIC S. aureus (ATCC 29213)
[4] = Staphylococcus aureus, ATCC29213; S. aureus ATCC 29213; read-out: S. aureus MIC (converted)
[5] = Mycolicibacterium smegmatis; read-out: MIC M. smegmatis
[6] = Staphylococcus aureus, ATCC29213; read-out: MIC S. aureus (ATCC 29213)
[7] = Escherichia coli, ATCC25922; E. coli ATCC 25922; read-out: E. coli MIC (converted)
[8] = Escherichia coli, ATCC25922; read-out: MIC E. coli (ATCC 25922)
[9] = Escherichia coli, 20 h; read-out: MIC E. coli (QA-11.8)
[10] = multi-resistant isolate (ampicillin, azithromycin, cefotaxime, ertapenem, imipenem and others)
[11] = Escherichia coli, 20 h; read-out: MIC E. coli (QA-11.3)
[12] = Salmonella; read-out: MIC S. alachua RDK 030c (QA-1482/04)
[13] = Campylobacter jejuni, ATCC33560; read-out: MIC C. jejuni RDK 135 (ATCC 33560)
[14] = mean of two to four measurements, read-out: Topoisomerase IV IC50 E. coli

| SMILES | IC50 (S. aureus DNA gyrase) [nM] | IC50 (E. coli DNA gyrase) [nM] | IC50 (E. coli Topo IV) [nM] | MIC (S. aureus (ATCC 29213); [3]) [µg/mL] | MIC (S. aureus (ATCC 29213); [4]) [µM] | MIC (MRSA (QA-11.7)) [µg/mL] | MIC (M. smegmatis; [5]) [µg/mL] | MIC (S. aureus (ATCC 29213); [6]) [µg/mL] | MIC (E. coli (ATCC 25922); [7]) [µM] | MIC (E. coli (ATCC 25922); [8]) [µg/mL] | MIC (E. coli (QA-11.8); [9]) [µg/mL] | MIC (E. coli (QA-11.7); [10]) [µg/mL] | MIC (E. coli (QA-11.3); [11]) [µg/mL] | MIC [1, 12] [µg/mL] | MIC [2, 13] [µg/mL] | IC50 (E. coli Topo IV; [14]) [nM] | also measured |
| --- | --- | --- | --- | --- | --- | --- | --- | --- | --- | --- | --- | --- | --- | --- | --- | --- | --- |
| COc1ccc2nccc(CCN3CCC(NC(=O)c4cn5cccc(C#N)c5n4)CC3)c2n1 [Compound 7, 8-Cyano-N-(1-(2-(6-methoxy-1,5-naphthyridin-4-yl)ethyl)piperidin-4-yl)imidazo[1,2-a]pyridine-2-carboxamide] | > 100000 | > 100000 | > 100000 | > 128 | 281 | > 128 | 16 (≈ 35.1 µM) |  |  |  |  |  |  |  |  |  | MIC (E. coli (ATCC 25922); Escherichia coli, ATCC25922, 20 h; E. coli ATCC 25922; read-out: E. coli MIC (converted)): 281 µM; MIC (E. coli (ATCC 25922); Escherichia coli, ATCC25922, read-out: MIC E. coli (ATCC 25922)): > 128 µg/mL; MIC (E. coli (QA-11.8); Escherichia coli, 20 h, read-out: MIC E. coli (QA-11.8)): > 128 µg/mL; MIC (E. coli (QA-11.7)): > 128 µg/mL; MIC (E. coli (QA-11.3); Escherichia coli, 20 h, read-out: MIC E. coli (QA-11.3)): > 128 µg/mL; MIC ([1]; Salmonella, read-out: MIC S. alachua RDK 030c (QA-1482/04)): > 128 µg/mL; MIC ([2]; Campylobacter jejuni, ATCC33560, read-out: MIC C. jejuni RDK 135 (ATCC 33560)): > 128 µg/mL |
| COc1ccc2nccc(CCN3CCC(NCc4cnn(-c5ccccc5)n4)CC3)c2n1 [Compound 8, 1-(2-(6-Methoxy-1,5-naphthyridin-4-yl)ethyl)-N-((2-phenyl-2H-1,2,3-triazol-4-yl)methyl)piperidin-4-amine] | 240 ± 40 | 7830 ± 550 | 210 |  | 1.13 | 0.5 (≈ 1.13 µM) | 0.5 (≈ 1.13 µM) | 0.5 | 144 | 64 | 32 (≈ 72.1 µM) | 4 (≈ 9.02 µM) | 32 (≈ 72.1 µM) | > 128 | 4 (≈ 9.02 µM) |  | LE DNA Gyrase S. aureus (S. aureus DNA gyrase; LE = (1.37/HA) × pIC50): 0.27; LE DNA Gyrase E. coli (E. coli DNA gyrase; LE = (1.37/HA) × pIC50): 0.21; LE Topo IV E. coli (E. coli Topo IV; LE = (1.37/HA) × pIC50): 0.28 |
| COc1ccc2nccc(CCN3CCC(NCc4ccc(Cl)cc4)CC3)c2n1 [Compound 13] |  |  |  | 0.125 | 0.3 | 0.5 (≈ 1.22 µM) | 0.25 (≈ 0.608 µM) |  | 9.73 | 4 | 2 (≈ 4.87 µM) | 1 (≈ 2.43 µM) | 2 (≈ 4.87 µM) | 32 (≈ 77.9 µM) | 2 (≈ 4.87 µM) | 31 |  |
| COc1ccc2nccc(CCN3CCC(NCc4ccc(Br)cc4)CC3)c2n1 [Compound 14] |  |  |  |  | 0.07 | 0.0625 (≈ 0.137 µM) |  | 0.031 | 4.39 | 2 | 1 (≈ 2.2 µM) | 1 (≈ 2.2 µM) | 1 (≈ 2.2 µM) | 16 (≈ 35.1 µM) | 0.5 (≈ 1.1 µM) | 42 ± 3 | MIC (M. smegmatis; Mycolicibacterium smegmatis, read-out: MIC M. smegmatis): 0.125 µg/mL (≈ 0.274 µM) |
| COc1ccc2nccc(CCN3CCC(NCc4ccc(I)cc4)CC3)c2n1 [Compound 15] |  |  |  |  |  | 0.0078 (≈ 0.0155 µM) | 0.015 (≈ 0.0299 µM) | 0.0078 | 3.98 | 2 | 0.25 (≈ 0.498 µM) | 1 (≈ 1.99 µM) | 1 (≈ 1.99 µM) | 8 (≈ 15.9 µM) | 0.015 (≈ 0.0299 µM) | 21 ± 1 | S. aureus MIC in molar (S. aureus (ATCC 29213); S. aureus ATCC 29213): 0.016 µM; MIC (S. aureus (ATCC 29213); Staphylococcus aureus, ATCC29213, 20 h; S. aureus ATCC 29213; read-out: S. aureus MIC (converted)): 0.01 µM; MIC (E. coli (ATCC 25922); Escherichia coli, ATCC25922; range over E. coli strains; read-out: MIC E. coli): 0.25 to 2 µg/mL |
